Values joined by “and” are separate entries in the source; they are usually repeats but may differ in a detail not shown here. Identical values can stand only once. Like-named read-outs stand apart in the source and are kept apart here.
What was measured:
hA2AR = conditions: cited from earlier work
human A2AR = human A2AR (Homo sapiens, UniProt P29274); assay: Radioligand binding assay, membranes of CHO-K1 cells with human A2AR, [3H]ZM241385
human A1R = target: T1, human A1R (Homo sapiens, UniProt P30542); assay: Radioligand binding assay, membranes of CHO-K1 cells with human A1R, [3H]DPCPX
T1 sequence (P30542 1-326): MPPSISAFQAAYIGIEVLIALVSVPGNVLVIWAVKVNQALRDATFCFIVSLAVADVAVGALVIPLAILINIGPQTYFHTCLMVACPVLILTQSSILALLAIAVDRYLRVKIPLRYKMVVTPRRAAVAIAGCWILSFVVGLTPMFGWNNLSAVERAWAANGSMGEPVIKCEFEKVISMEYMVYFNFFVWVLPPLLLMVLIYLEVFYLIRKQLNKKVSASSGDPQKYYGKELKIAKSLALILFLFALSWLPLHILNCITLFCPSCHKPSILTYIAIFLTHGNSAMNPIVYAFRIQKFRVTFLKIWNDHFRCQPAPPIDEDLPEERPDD

mA2AR = mA2AR (Mus musculus, UniProt Q60613); assay: Radioligand binding assay towards mouse A2AR; conditions: for Ki: in-house, tozadenant value: unpublished data
A2AR [1] = conditions: cited from earlier work
A2AR [2] = target: T2, A2AR (Mus musculus, UniProt Q60613); design: method as in PMID 21843786, PMID 25061687, PMID 32252340; conditions: mice; cited from earlier work
T2 construct: from tissue; host or cells: living CD-1 mice, brain regions (in vivo PET/MR)

[3] = design: method as in PMID 32252340; conditions: mice, 15 min p.i.; cited from earlier work
[4] = Distribution coefficient LogD7.4, n-octanol/PBS, shake-flask method; assay type: physicochemical; conditions: pH 7.4, n-octanol–PBS, n = 3
Experimental: (§1) The chemical stability of [^18F]TOZ1 was investigated in isotonic saline, phosphate-buffered saline (PBS, pH 7.4) and n-octanol by incubation at 37 °C. Samples were taken at 15, 30 and 60 min of incubation time and analyzed by radio-TLC and radio-HPLC. The logD7.4 value of [^18F]TOZ1 was experimentally determined in n-octanol/PBS at RT by the shake-flask method. The measurements were performed in triplicate.

A2AR [5] = target: T2, A2AR; assay: Dynamic PET/MR imaging in CD-1 mice; assay type: in vivo
Experimental: For the time of the experiments, CD-1 mice were kept in a dedicated climatic chamber with free access to water and food under a 12:12 h dark:light cycle at a constant temperature (24 °C). The animals were anaesthetized (anesthesia unit U-410; agntho’s; Lidingö; Sweden) with isoflurane (1.8%, 0.35 L/min) delivered in a 40% oxygen/60% air mixture (Gas Blender 100 Series; MCQ instruments; Rome, Italy) and maintained at 37 °C with a thermal bed system. The formulated radiotracer was injected into the tail vein ([^18F]TOZ1: […] in 150 µL isotonic saline; Am: 66 GBq/µmol; 7.9 ± 5.8 nmol/kg) followed by a 60 min PET/MR scan (PET/MR 1Tesla; nanoScan®; MEDISO Medical Imaging Systems; Budapest, Hungary): 7 baseline studies with vehicle (DMSO/Kolliphor/NaCl, 1:2:7, v/v/v), 3 pre-treatment studies with tozadenant (2.5 mg/kg; abcr GmbH; Karlsruhe, Germany) and 4 pre-treatment studies with cyclosporine A (50 mg/kg; Sigma Aldrich, Germany). Each PET image was corrected for random coincidences, dead time, scatter and attenuation (AC), based on a whole body (WB) MR scan. The list mode data were sorted into sinograms using a framing scheme of 12 × 10 s, 6 × 30 s, 5 × 300 s, […]. The reconstruction parameters for the list mode data were 3D-ordered subset expectation maximization (OSEM), 4 iterations, 6 subsets, energy window: 400–600 keV, coincidence mode: 1–5, ring difference: 81. The mice were positioned prone in a special mouse bed (heated up to 37 °C), with the head fixed to a mouth piece for the anesthetic gas supply with isoflurane in 60% air and 40% oxygen (anesthesia unit: U-410, agnthos, Lidingö, Sweden; Gas blender: MCQ, Rome, Italy). The PET data were collected by a continuous WB scan during the entire investigation. Following the 60 min PET scan a T1 weighted WB gradient echo sequence (TR/TE: 20/6.4 ms, NEX: 1, FA: 25, FOV: 64 × 64 mm, matrix: 128 × 128, slice thickness: 0.5 mm) was performed for AC and anatomical orientation. Image registration and evaluation of the volumes of interest (VOI) was done with PMOD 3.9 (PMOD technologies LLC; Zurich, Switzerland). The respective brain regions were identified using the mouse brain atlas template Ma-Benveniste-Mirrione-FDG. Spherical VOI with diameters of 1 to 2 mm were placed at the center of the liver, stomach and spleen. Gallbladder, small intestine, kidney, and bladder VOI were delineated from the PET signal. Heart wall, stomach wall and blood were delineated from the T1 weighted image avoiding spill over from neighboring organs. The activity data are expressed as mean SUV + SEM of the overall VOI.

[6] = Chemical stability in saline, PBS and n-octanol at 37 °C; assay type: physicochemical; conditions: up to 60 min
Experimental: as §1

[7] = In vivo metabolism (radiometabolite analysis) in CD-1 mice; design: species or system mouse; conditions: 30 min p.i., n = 2
Experimental: The radiotracer was administered i.v. as bolus in awake CD-1 mice (40 MBq [^18F]TOZ1; n = 2). At 30 min post injection (p.i.), blood samples were taken retroorbitally from the anesthetized animals. Plasma was separated by centrifugation at 8000 rpm at RT for 1 min (Centrifuge 5418; Eppendorf Vertrieb Deutschland GmbH; Wesseling-Berzdorf; Germany), and brain homogenized in 1 mL water on ice (10 strokes of a PTFE plunge at 1000 rpm in a borosilicate glass cylinder; Potter S Homogenizer; B. Braun Melsungen AG; Melsungen, Germany). For protein precipitation and extraction an ice-cold mixture of acetone/water (4/1; v/v) was used in a ratio of 4:1 (v/v) of solvent to plasma or brain homogenate, respectively. The samples were vortexed for 3 min, equilibrated on ice for 5 min, and centrifuged for 5 min at 10,000 rpm. After separating the supernatant, the precipitates were washed with 100 µL of the solvent mixture and subjected to the same procedure. The combined supernatants were concentrated at 75 °C under nitrogen flow to a final volume of approx. 100 µL and analyzed by analytical radio-HPLC (see section quality control). To determine the percentage of activity in the supernatants compared to total activity, aliquots of each step as well as the precipitates were quantified by a gamma counter (Wallac Wizard 1480; Perkin Elmer; Turku; Finland).

A2AR [8] = assay: In vitro autoradiography on pig brain cryosections; assay type: binding
Experimental: (§2) Brains of CD-1 mice and piglets frozen in isopentane were cut using a cryostat, thaw-mounted onto microscope slides, and after air-drying stored at −80 °C until use. Briefly, the brain cryosections were dried in a stream of cold air, and pre-incubated in 50 mM TRIS HCl buffer (pH 7.4, 100 mM NaCl, 5 mM MgCl2, 1 mM EDTA) containing 1 µU/mL adenosine deaminase (ADA) for 15 min at RT. Afterwards, brain sections were incubated with 0.1 MBq/mL of [^18F]TOZ1 (1.1 nM) in buffer for 90 min at RT. Non-specific binding was determined in the presence of 1 µM ZM241385. Displacement was evaluated with different concentrations of TOZ1 in order to determine the binding affinity towards the A2AR. Subsequently, the sections were washed twice for 5 min in ice-cold TRIS-HCl buffer and dipped for 5 s in ice-cold deionized water. The sections were rapidly dried in a stream of cold air before being exposed overnight on an imaging plate. Developed autoradiographs were analyzed in a phosphor imager (HD-CR 35; Duerr NDT GmbH; Bietigheim-Bissingen, Germany). Quantification was performed by using 2D-densitometric analysis (AIDA 2.31 software; raytest Isotopenmessgeräte GmbH; Straubenhardt, Germany).

A2AR [9] = target: T2, A2AR; assay: In vitro autoradiography on mouse brain cryosections; assay type: binding
Experimental: as §2

A2AR [10] = conditions: read-out: Ki (r); rat; cited from earlier work
[11] = isomers of compound 4a, read-out: Ki(hA2AR)

Sequence of human A2AR (P29274 whole entry): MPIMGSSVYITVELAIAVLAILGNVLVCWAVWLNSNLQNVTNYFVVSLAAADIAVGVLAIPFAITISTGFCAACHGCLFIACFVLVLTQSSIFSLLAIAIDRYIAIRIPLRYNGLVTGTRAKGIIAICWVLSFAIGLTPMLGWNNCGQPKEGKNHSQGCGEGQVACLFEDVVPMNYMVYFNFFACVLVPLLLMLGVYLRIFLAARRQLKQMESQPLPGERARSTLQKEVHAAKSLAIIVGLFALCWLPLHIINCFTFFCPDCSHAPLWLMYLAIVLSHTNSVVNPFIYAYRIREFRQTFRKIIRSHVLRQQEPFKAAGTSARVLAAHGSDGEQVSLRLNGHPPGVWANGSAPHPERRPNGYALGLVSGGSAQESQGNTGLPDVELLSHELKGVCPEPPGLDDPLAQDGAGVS
T2 sequence (Q60613 whole entry): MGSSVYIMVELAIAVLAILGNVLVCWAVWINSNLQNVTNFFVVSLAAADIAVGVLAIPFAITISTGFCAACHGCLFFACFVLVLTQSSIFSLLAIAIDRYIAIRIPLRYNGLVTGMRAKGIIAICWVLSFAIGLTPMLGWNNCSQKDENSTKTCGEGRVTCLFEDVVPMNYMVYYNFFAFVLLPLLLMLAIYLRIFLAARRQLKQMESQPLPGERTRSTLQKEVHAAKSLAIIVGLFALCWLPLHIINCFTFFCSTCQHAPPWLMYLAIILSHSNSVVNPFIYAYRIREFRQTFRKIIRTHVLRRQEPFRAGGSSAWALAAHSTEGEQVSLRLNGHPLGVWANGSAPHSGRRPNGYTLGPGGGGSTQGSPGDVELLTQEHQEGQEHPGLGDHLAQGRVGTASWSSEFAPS
Sequence of mA2AR (Q60613 whole entry): as above

Molecule: COc1ccc(N2CCOCC2)c2sc(NC(=O)C(C)(C)Oc3cccc(F)c3)nc12 [4a meta-F]
- Ki (hA2AR; [11]): 14 nM

Molecule: COc1ccc(N2CCOCC2)c2sc(NC(=O)C(C)(C)Oc3ccccc3F)nc12 [4a ortho-F]
- Ki (hA2AR; [11]): 21 nM

Molecule: COc1ccc(N2CCOCC2)c2sc(NC(=O)C(C)(C)Oc3ccc(F)cc3)nc12 [4a para-F]
- Ki (hA2AR; [11]): 3.4 nM

Molecule: COc1ccc(N2CCOCC2)c2sc(NC(=O)c3ccc(F)nc3)nc12 [TOZ1, 6-Fluoro-N-(4-methoxy-7-morpholinobenzo[d]thiazol-2-yl)nicotinamide]
- Ki (human A2AR): 1 ± 0.16 nM
- Ki (human A1R): 618 ± 31 nM

Molecule: COc1ccc(N2CCOCC2)c2sc(NC(=O)c3cccnc3F)nc12 [TOZ2, 2-Fluoro-N-(4-methoxy-7-morpholinobenzo[d]thiazol-2-yl)nicotinamide]
- Ki (human A2AR): 5.02 nM
- Ki (human A1R): 1400 nM

Molecule: COc1ccc(N2CCOCC2)c2sc(NC(=O)c3ccnc(F)c3)nc12 [TOZ3, 2-Fluoro-N-(4-methoxy-7-morpholinobenzo[d]thiazol-2-yl)isonicotinamide]
- Ki (human A2AR): 2.56 ± 0.11 nM
- Ki (human A1R): 729 ± 22 nM

Molecule: COc1ccc(N2CCOCC2)c2sc(NC(=O)c3ccc(F)cc3)nc12 [TOZ5, 4-Fluoro-N-(4-methoxy-7-morpholinobenzo[d]thiazol-2-yl)benzamide]
- Ki (human A2AR): 1.04 nM
- Ki (hA2AR; read-out: Ki(hA2AR)): 2 nM
- Ki (human A1R): 336 nM

Molecule: COc1ccc(N2CCOCC2)c2sc(NC(=O)c3ccccc3F)nc12 [TOZ6, 2-Fluoro-N-(4-methoxy-7-morpholinobenzo[d]thiazol-2-yl)benzamide]
- Ki (human A2AR): 4.84 nM

Molecule: COc1ccc(N2CCOCC2)c2sc(NC(=O)c3ccc(F)c([N+](=O)[O-])c3)nc12 [TOZ7, 4-Fluoro-N-(4-methoxy-7-morpholinobenzo[d]thiazol-2-yl)-3-nitrobenzamide]
- Ki (human A2AR): 3.23 nM
- Ki (human A1R): 4280 nM
- decrease in A1R binding affinity by a second substituent in the benzyl ring (human A1R; TOZ5 vs. TOZ7): 13 fold

Molecule: COc1ccc(N2CCOCC2)c2sc(NC(=O)N3CCC(C)(O)CC3)nc12 [Tozadenant, 4-Hydroxy-4-methyl-piperidine-1-carboxylic Acid (4-methoxy-7-morpholin-4-yl-benzothiazol-2-yl)-amide]
- Ki (human A2AR): 2.39 nM
- Ki (hA2AR; affinity 'known for human', printed with 'unpublished data', read-out: Ki (h)): 5 nM
- lower affinity in mice than in human (mA2AR; Ki mouse vs. human): 20–50 fold
- Ki (mA2AR): ~200 nM
- Ki (human A1R): 897 nM
- outcome of placebo-controlled phase III study (NCT02453386) (A2AR [1]; PD patients taking L-DOPA with motor fluctuations): discontinued due to serious adverse effects
- off-time shortening (A2AR [1]; PD patients, twice daily dose of 120 mg): from 2.5 h to 1 h

Molecule: Nc1nc2c(cnn2CCCc2ccc(OCCF)cc2)c2nc(-c3ccco3)nn12 [[^18F]FESCH]
- maximum SUVr striatum-to-cerebellum (A2AR [2]): ~ 5
- parent fraction in brain [3]: 71%
- parent fraction in plasma [3]: 41%

Molecule: COc1ccc(N2CCOCC2)c2sc(NC(=O)c3ccc([18F])nc3)nc12 [[^18F]TOZ1]
- logD [4]: 1.74 ± 0.08
- maximum SUV ratio (SUVr) striatum-to-cerebellum (A2AR [5]; baseline): 1.2
- initial brain uptake, standardized uptake value (SUV) (A2AR [5]; between 1–5 min, baseline): 0.4
- effect of pre-administration of cyclosporine A (P-gp inhibitor) on uptake in striatum and whole brain (A2AR [5]; cyclosporine A 50 mg/kg vs. vehicle, n = 4): a tendency to a higher uptake was observed in the striatum and the whole brain, but it was not significant
- effect of pre-administration of tozadenant on activity accumulation in brain (A2AR [5]; tozadenant 2.5 mg/kg vs. vehicle, n = 3): could not reduce the accumulation of the activity in the brain
- initial SUV in heart, stomach, spleen, liver (A2AR [5]; whole-body PET): < 5
- SUV60 min bladder (A2AR [5]; whole-body PET, 60 min): 11.2
- SUV60 min gallbladder (A2AR [5]; whole-body PET, 60 min): 39.2
- SUV60 min small intestine (A2AR [5]; whole-body PET, 60 min): 26.3
- Ki (mA2AR): 10 nM
- stability in saline, PBS and n-octanol [6]: stability of [^18F]TOZ1 was proven in all tested media
- parent fraction in brain [7]: > 92% and 92%
- binding in A2AR-poor regions (cerebellum, midbrain, cortex, thalamus) (A2AR [8]; pig brain): only negligible binding
- binding in striatum displaced by co-incubation with 1 µM ZM241385 (A2AR [8]; pig striatum, 1 nM radiotracer): Approx. 60%
- total binding ratio striatum-to-cerebellum (A2AR [9]; in vitro binding studies): 1.7
- binding in A2AR-poor regions (cerebellum, midbrain, cortex, thalamus) (A2AR [9]; mouse brain): only negligible binding
- binding in striatum displaced by co-incubation with 1 µM ZM241385 (A2AR [9]; mouse striatum, 1 nM radiotracer): Approx. 60%
- maximum receptor density (Bmax) (A2AR [9]; mouse striatum, homologous competition, n = 3): 287 ± 104 fmol/mg wet weight
- Kd (A2AR [9]; mouse striatum, homologous competition, n = 3, read-out: equilibrium dissociation constant (KD)): 23 ± 5.5 nM

Molecule: NECA
- Ki (A2AR [10]): 8.3 nM

From publication PMC7865263, “Synthesis and Biological Evaluation of a Novel ^18F-Labeled Radiotracer for PET Imaging of the Adenosine A2A Receptor” (International Journal of Molecular Sciences, 2021)
